# Values quoted from earlier work as cited in patent publication US20230263874A1, “TUMOR ANTIGENS FOR LIVER CANCER IMMUNOTHERAPY” (ISTITUTO NAZIONALE TUMORI IRCCS - FONDAZIONE G. PASCALE, priority 2020, published 2023).
# Tested on: hepatocellular carcinoma
# Conditions: second-line treatment, advanced liver cancer not responded to sorafenib; cited from earlier work
structure (smiles),measurement,value
CNC(=O)c1cc(Oc2ccc(NC(=O)Nc3ccc(Cl)c(C(F)(F)F)c3)c(F)c2)ccn1 [Regorafenib],improvement in overall survival,2.8 month
same,reduction risk of death,38%
